Reference: patent US11549198B2, “Method of producing non-woven protein fibers” (Rowan University, priority 2017, dated 2023)

Assay: Drug release study of model drugs from corn zein fibers and films in phosphate buffer
Assay type: physicochemical
Settings: for n value from the Korsmeyer-Peppas equation of model drug release profile / release percentage at the 15-minute time point: 20 mM phosphate buffer (pH 7.0); for n value from the Korsmeyer-Peppas equation of model drug release profile: up to 96 hours; for release percentage at the 15-minute time point: fibers
Procedure: Approximately 0.05 g of film or fiber mesh was placed in 50 mL of 20 mM phosphate buffer (pH 7.0). Drug release was done in triplicate under conditions of dynamic flow. At the appropriate time points (15 minutes, 30 minutes, 1 hour, 2 hours, 3 hours, 4 hours, 5 hours, 24 hours, 48 hours, 96 hours), aliquots of solution were removed from the samples. The absorbance of each aliquot was measured at the appropriate wavelength for the corresponding model drug using a SpectraMax i3x Plate Reader (Molecular Devices LLC, Sunnyvale, Calif., USA). Absorbance was related to concentration and the values from the three aliquots were averaged and graphed as a function of time. Upon completion of the study, fibers were extracted from solution via suction filtration and dried overnight. Release profiles were then fit with the Krosmeyer-Peppas release model shown in equation 1: […]
To further investigate the potential effectiveness of the supramolecular systems for transdermal drug delivery, drug release of the model drugs incorporated in either films or fibers was simulated in 0.1% w/v 20 mM phosphate buffer (pH 7.0) for different times. Shown in FIGS. 16A-16B are the normalized release profiles for the fiber and film models, respectively. Data points were normalized based on the amount of drug released at 96 hours. No significant drug release was observed above 96 hours for all samples. […] Alcian blue is a very large molecule (MW 1.3 kDa), so it is reasonable to assume its bulkiness prevents it from being efficiently integrated into the zein structure. […] This can be attributed to the nature of the method used to fabricate the films. The corn zein was exposed to formic acid for a longer period of time during film synthesis than during fiber generation. During this time, the formic acid may have severed some of the hydrogen bonds of the corn zein structure, allowing the integration of the model drug molecules.

Row | n value from the Korsmeyer-Peppas equation of model drug release profile (Fiber) | n value from the Korsmeyer-Peppas equation of model drug release profile (Film) | release percentage at the 15-minute time point | release profile at the earlier points (films, in contrast to the fibers) | SMILES
1 | 0.353 | 0.1184 |  |  | CN(C)c1ccc(C(=C2C=CC(=[N+](C)C)C=C2)c2ccc(N(C)C)cc2)cc1 [Crystal Violet, Crystal violet]
2 | 0.1318 | 0.430 | considerably high release percentage | dramatic drop | O=C1/C(=C2\Nc3ccc(S(=O)(=O)[O-])cc3C2=O)Nc2ccc(S(=O)(=O)[O-])cc21.[Na+].[Na+] [Indigo Carmine, indigo carmine]

Continued, compound first:

Row | SMILES | n value from the Korsmeyer-Peppas equation of model drug release profile (Fiber) | n value from the Korsmeyer-Peppas equation of model drug release profile (Film) | release percentage at the 15-minute time point | release profile at the earlier points (films, in contrast to the fibers)
3 | CN(C)C(SCc1ccc2c(c1)-c1nc-2nc2[n-]c(nc3nc(nc4[n-]c(n1)c1ccc(CSC(N(C)C)=[N+](C)C)cc41)-c1ccc(CSC(N(C)C)=[N+](C)C)cc1-3)c1ccc(CSC(N(C)C)=[N+](C)C)cc21)=[N+](C)C.[Cl-].[Cl-].[Cl-].[Cl-].[Cu+2] [Alcian Blue, alcian blue 8GX] | 0.1104 | 0.1507 | considerably high release percentage | 
4 | CCN(CC)c1ccc2c(-c3ccccc3C(=O)O)c3ccc(=[N+](CC)CC)cc-3oc2c1.[Cl-] [Rhodamine B, rhodamine B] | 0.337 | 0.203 |  | 
5 | CO[C@H]1/C=C/O[C@@]2(C)Oc3c(C)c(O)c4c(O)c(c(/C=N/N5CCN(C)CC5)c(O)c4c3C2=O)NC(=O)/C(C)=C\C=C\[C@H](C)[C@H](O)[C@@H](C)[C@@H](O)[C@@H](C)[C@H](OC(C)=O)[C@@H]1C [Rifampin, rifampin] | 0.392 | 0.284 |  | 
